According to paper PMC7467771, “Lipophilic Arginine Esters: The Gateway to Preservatives without Side Effects” (Molecular Pharmaceutics, 2020):

Tests used:
Caco-2 cell membrane = experiment: fluorescence anisotropy (DPH), membrane fluidity; type: cell-based; conditions: DPH-labeled Caco-2 cells
Method: To evaluate membrane fluidity by fluorescence spectroscopy, a method described by Aricha et al. was adapted.[17] Caco-2 cells were labeled with fluorescent probe DPH (1,6-diphenyl-1,3,5-hexatriene). For this, a 1 mM solution of DPH was prepared in acetone. A Caco-2 cell monolayer in a 15 mL cell flask after washing with sterile PBS was trypsinized and resuspended in 10 mM HBS (pH 7.4) at a concentration of 2 × 10^5 cells mL^–1. Then a 1 mM DPH solution (10 μL) was added to a Caco-2 cell suspension (5 mL) and kept for incubation at 37 °C in the dark. After 1 h, cells were centrifuged at 588 rpm for 3 min, and solvent was removed to get rid of the free probe. Cells were resuspended in the same volume of HBS. Samples of Arg-surfactants were prepared in HBS in concentrations of 2000, 1000, and 500 μg mL^–1. Then each sample solution was mixed with a DPH-labeled cell suspension in equal volumes and incubated at room temperature in the dark. HBS mixed in an equal volume with the DPH-labeled cell suspension was used as a control. At specific time points, fluorescence polarization data were obtained using an excitation wavelength of 350 nm and an emission wavelength of 420 nm, and anisotropy was calculated using the following equation: [drawing 5] where I∥ and I⊥ are the fluorescence intensities parallel and perpendicular to the direction of the excitation light beam.

Caco-2 cells = experiment: resazurin assay, cytotoxicity; type: cell-based; conditions: for cytotoxicity (samples showing >80% cell viability considered nontoxic): Caco-2, 4 h incubation, at 3000 μg mL^–1; for EC50: Homo sapiens, Caco-2, 4 h, read-out: EC50 (concentration causing 50% cell death)
Method: The resazurin assay was used to determine the cytotoxic potential of Arg-esters according to a previous method with some minor modifications.[15] Caco-2 cells were seeded in a 24-well cell culture plate at 25 000 cells per well density and kept in an incubator at 37 °C under a 95% relative humidity environment and 5% CO2 level. Minimum essential medium (MEM) supplemented with streptomycin (0.1 mg […]), penicillin (100 units […]), and fetal calf serum (FCS) 10% (v/v) was used for growing cells. During a growth period of 14 days, the medium was replaced every other day. On the day of the experiment, test solutions of Arg-OL and Arg-DT esters were prepared in 25 mM HBS (HEPES buffered saline) buffer (pH 7.4) in the concentration range of 1000–3000 μg mL^–1. For comparison, the same concentrations of BAC and cetrimide were also prepared in HBS. HBS without any addition was used as a positive control, and Triton X-100 (2%, v/v) in HBS was used as a negative control. The growth medium from all wells of the cell culture plate was removed, and cells were washed three times with HBS preheated at 37 °C. Each test solution and controls were then added to individual wells in a volume of 500 μL, and the cell culture plate was incubated under the same conditions. After 4 h, the solution from each well was removed, and cells were washed with HBS (pH 7.4) preheated at 37 °C. Then, 500 μL of resazurin (2.2 mM) per well was added and incubated for further 3 h under the same conditions. Afterward, the fluorescence of the supernatant from each well was measured at the excitation wavelength of 540 nm and an emission wavelength of 590 nm. Cell viability was calculated by the equation: [drawing 4]

[1] = test system: lipase from porcine pancreas; experiment: degradation of arginine esters by lipase (pH-stat titration); type: in vitro ADME; conditions: within 3 h, 1 mM ester, pH 6.8, 37 °C
Method: Lipase-catalyzed hydrolytic degradation of Arg-OL and Arg-DT esters was carried out using a previously described experimental setup.[16] Digestion medium consisted of 2 mM Tris buffer with 5 mM CaCl2 and 150 mM NaCl. The medium pH was adjusted to 6.8. Lipase solution was freshly prepared before the experiment as follows: 0.5 g of lipase was mixed for 10 min in 10 mL of digestion medium, followed by centrifugation at 12 000 rpm and 4 °C for 15 min. The supernatant was collected for the degradation test and ice-stored until use. For the degradation test, solutions of Arg-OL and Arg-DT were prepared in the concentration of 1 mM in digestion buffer, and the pH was adjusted to 6.8 using 0.5 M NaOH. Thereafter, 2 mL of lipase solution was added to 18 mL of the Arg-surfactant solution to initiate ester degradation under continuous stirring at 37 °C. The ester hydrolysis was reflected by monitoring the drop in pH due to the release of arginine and titrated to keep the pH at 6.8 with the addition of 0.5 M NaOH. The experiment was continued for 3 h. Back-titration was also performed at the end of the experiment by raising the pH to 9, and additional consumption of the NaOH volume reflected the nonionized form of an amino acid. […]

red blood cells (RBC) = experiment: hemolysis study; type: cell-based; conditions: human RBC, 1 h, 37 °C, PBS pH 7.4
Method: The hemolysis test was performed with red blood cells (RBC) to evaluate the potential toxic effect of Arg-surfactants on human cells.[18] Human RBC concentrate was kindly donated by the Tirol Kliniken GmbH, Innsbruck, Austria, and stored at 4 °C until use. RBC concentrate (0.556 mL) was freshly diluted by adding sterile Dulbecco’s PBS (pH 7.4) (1.944 mL) before the test to obtain an equivalent amount of whole blood (EWB). Then EWB was 50 times diluted in sterile Dulbecco’s PBS (pH 7.4). The diluted blood on visual inspection was turbid and settled down upon leaving undisturbed, indicating no cell lysis. Arg-surfactant stock solutions were prepared in the concentration range of 10–5000 μg mL^–1 in PBS. For comparison, BAC and cetrimide solutions were prepared in the same concentration range in PBS. For the assay, 10 μL of each test sample was mixed with 190 μL of diluted blood, resulting in the testing final concentrations of 0.5–250 μg mL^–1. For the positive control, 10 μL of 20% v/v Triton X-100 and, for the negative control, 10 μL of sterile Dulbecco’s PBS were mixed with 190 μL of diluted blood. All samples and controls were incubated for 1 h at 37 °C with shaking. After centrifugation at 10 000 rpm for 60 s, aliquots of 100 μL were withdrawn from the supernatants and transferred to a 96-well plate. Absorbance was measured at a wavelength of 420 nm. The extent of hemolysis as a percentage was determined by using the following equation: [drawing 6]

SMILES	changes in anisotropy (Caco-2 cell membrane; < 1000 μg mL^–1)	cytotoxicity (samples showing >80% cell viability considered nontoxic) (Caco-2 cells)	EC50 (Caco-2 cells) [µg/mL]	percentage of arginine ester cleaved by lipase [1] [%]	HC50 (concentration causing lysis of 50% red blood cells) (red blood cells (RBC)) [μg mL^–1]	decrease in the anisotropy value as compared to the control (Caco-2 cell membrane; within 2 h) [%]
CCCCCCCCCCCCC(CCCCCCCCCC)COC(=O)[C@@H](N)CCCNC(=N)N.O=C(O)C(F)(F)F (stereo partly shown) [Arg-DT, 2-Decyltetradecyl Argininate Trifluoroacetate]	not significant	noncytotoxic	4500	85	125	–
CCCCCCCCC=CCCCCCCCCOC(=O)[C@@H](N)CCCNC(=N)N.O=C(O)C(F)(F)F [Arg-OL, Octadec-9-en-1-yl Argininate Trifluoroacetate]	–	cytotoxic	2600	93	60	> 30
